According to patent US20260199327A1, “PHARMACEUTICAL COMBINATION AND PHARMACEUTICAL COMPOSITION FOR TREATING CANCER” (CSPC ZHONGQI PHARMACEUTICAL TECHNOLOGY (SHIJIAZHUANG) CO., …, priority 2022, published 2026):
Counter-ions that a name gives are not always drawn. Like-named read-outs stand apart in the source and are kept apart here. Marks after values point to notes of the source that are not given here.

Columns and labels:
[1] = tested on: Hep3B (human hepatocarcinoma cell line) xenograft; settings: for growth of tumor (tumor weight) versus vehicle, in words / growth of xenograft tumor (tumor volume) versus vehicle, in words: at the test dose; for TV (mm^3) d14: d14, Mean ± SD; for TV (mm^3) d14 / Tumor Weight: n = 7; for TV (mm^3) d14 / T/C d14 (%) (relative tumor volume proliferation rate) / TGI d14 (%) (tumor growth inhibition rate) / Tumor Weight / Tumor Weight Inhibition Rate (%): palbociclib 50 mg/kg qd; for Tumor Weight / Tumor Weight Inhibition Rate (%): end of test; for Tumor Weight: Mean ± SD
Excerpt: 42 NU/NU mouse, female, 42-48 days old, weighing 22-26 g.
Hep3B cells were resuscitated and passaged in vitro to the desired number of cells. The cells were counted under a microscope, and diluted with serum-free medium and matrix gel (1:1) to adjust the number of tumor cells to approximately 5×10^7 cells/mL. The cell suspension was placed in an ice bath.
Hep3B cell suspension was withdrawn with a sterile syringe for inoculation into subcutaneous tissue in the axilla of the forelimb of NU/NU mice, with a volume of 0.1 mL/per mice, containing approximately 5.0×10^6 tumor cells, to prepare NU/NU mice Hep3B xenogratf model.
In the vehicle group, the solvents were administered at the same frequency and volume for 14 consecutive days.
4.3 Observation Criteria and Evaluation Criteria • (1) General state observation: all animals were observed once a day during the test period and the abnormalities in various parts of the body and the behavior change situations were recorded. • (2) Body weight: all animals were weighed once before testing and the appropriate body weight of animals were selected for testing. Animals were weighed once a day at a fixed time after initiation of administration for weight monitoring, and body weight statistics were consistent with tumor volume statistics. • (3) Death and moribund: time of death was recorded for dead animals, moribund animals were observed more frequently, and time of death was determined. • (4) Tumor Evaluation
After animal grouping, tumor length and short diameters were measured twice per week. • (1) Tumor volume: V=½×a×b^2 • (2) Relative tumor volume:
[formula] • (3) Relative tumor volume proliferation rate:
[formula] • (4) Tumor growth inhibition rate:
[formula] • Note: V: Tumor volume • a: tumor length; b: tumor width; RTV: relative tumor volume; TVnd: tumor volume on day n; TV0d: tumor volume on day 0; RTVxnd: mean relative tumor volume on day n; TVXn: mean tumor volume on day n in the administrated group; TVX0: mean tumor volume on day 0 in the administrated group; TVMn: mean tumor volume on day n in the solvent (model) group; TVM0: mean tumor volume on day 0 in the solvent (model) group. • (5) Tumor weight
At the end of the test, the animals were sacrificed by cervical dislocation, and a tumor was stripped and weighed.
Data were processed using SPSS 19.0 statistical software. Repeated Measure process analyzed tumor volume changes between groups with multiple measurements over time. Multivariate process compared differences in tumor volume between groups at each measurement. Difference in tumor weight between groups was analyzed by LSD method of One-way ANOVA.

[2] = tested on: Hep3B (human hepatocarcinoma cell line) xenograft; settings: for Change Rate in Weight (%) / Number of Animals (Survived/Total): BALB/c Nude mice, gavage qd 16 days, palbociclib 50 mg/kg; for Change Rate in Weight (%) / Number of Animals (Survived/Total) / TV(mm3) d16 / T/C d16 (%) (relative tumor volume proliferation rate) / TGI d16 (%) (tumor growth inhibition rate) / Tumor Weight / Tumor Weight Inhibition Rate (%): compound of formula (B) 5 mg/kg, sorafenib tosylate 8 mg/kg; for growth of xenograft tumor (tumor volume) versus vehicle, in words / tumor growth (tumor weight) versus vehicle, in words: at the test dose; for TV(mm3) d16: d16, Mean ± SD; for TV(mm3) d16 / Tumor Weight: n = 6; for TV(mm3) d16 / T/C d16 (%) (relative tumor volume proliferation rate) / TGI d16 (%) (tumor growth inhibition rate) / Tumor Weight / Tumor Weight Inhibition Rate (%): palbociclib 50 mg/kg qd; for Tumor Weight / Tumor Weight Inhibition Rate (%): end of test; for Tumor Weight: Mean ± SD
Protocol: 36 BALB/c Nude mice, female, 18-20 g in body weight.
Compounds of formula (B), sorafenib tosylate, palbociclib.
Sorafenib tosylate/palbociclib: a solution of castor oil, anhydrous ethanol and ultrapure water in a volume ratio of 1:1:6.
In the solvent group, the solvents were administered at the same frequency and volume for 16 consecutive days.
4.3 Observation Criteria and Evaluation Criteria: Same as Example 2

[3] = target: FGFR4 (Homo sapiens, UniProt P22455); experiment: FGFR4 kinase activity inhibition experiment (Caliper mobility shift assay); assay type: biochemical
Chain of FGFR4 (P22455 22-802): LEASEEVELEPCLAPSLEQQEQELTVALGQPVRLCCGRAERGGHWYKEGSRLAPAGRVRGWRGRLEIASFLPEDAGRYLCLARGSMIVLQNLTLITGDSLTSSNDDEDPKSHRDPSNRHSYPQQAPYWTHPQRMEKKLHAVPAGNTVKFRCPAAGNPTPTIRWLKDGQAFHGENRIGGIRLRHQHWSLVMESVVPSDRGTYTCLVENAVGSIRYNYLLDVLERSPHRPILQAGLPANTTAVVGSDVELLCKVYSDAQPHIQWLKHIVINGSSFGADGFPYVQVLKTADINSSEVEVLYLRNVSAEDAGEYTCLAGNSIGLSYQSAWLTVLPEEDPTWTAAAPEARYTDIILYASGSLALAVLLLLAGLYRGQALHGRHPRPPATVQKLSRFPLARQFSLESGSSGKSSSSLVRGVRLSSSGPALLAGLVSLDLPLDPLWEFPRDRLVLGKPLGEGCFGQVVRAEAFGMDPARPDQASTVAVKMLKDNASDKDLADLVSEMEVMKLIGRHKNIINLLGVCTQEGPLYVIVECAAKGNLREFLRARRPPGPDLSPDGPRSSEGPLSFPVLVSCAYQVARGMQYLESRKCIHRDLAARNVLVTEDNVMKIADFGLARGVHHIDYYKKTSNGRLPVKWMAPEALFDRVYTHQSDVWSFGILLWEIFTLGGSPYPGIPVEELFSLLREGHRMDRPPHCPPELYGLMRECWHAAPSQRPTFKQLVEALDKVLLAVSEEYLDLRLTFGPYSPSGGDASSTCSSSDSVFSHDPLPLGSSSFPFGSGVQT
Protocol: FGFR4 protein kinase activity was determined using Caliper mobility shift assay. The compound was dissolved in DMSO and then diluted with kinase buffer, 5 μL of 5-fold final reaction concentration of compound (10% DMSO) was added to a 384-well plate. […] After incubation at 28° C. for 30-60 minutes, 25 μL of stop solution was added to stop the reaction. Conversion data was read on Caliper EZ Reader II (Caliper Life Sciences). The conversion rate was converted to inhibition rate (% inhibition=(max−sample conversion rate)/(max−min)*100), wherein max refers to the conversion rate of the DMSO control, and min refers to the conversion rate of enzyme-free control. Curve was plotted with compound concentration and inhibition rate on the horizontal and vertical coordinates respectively, and the curve was fitted and IC50 was calculated using XLFit excel add-in version 4.3.1 software.

[4] = tested on: Huh-7 cells; experiment: Huh-7 tumor cell proliferation inhibition assay (CellTiter Glo); assay type: cell-based; settings: Homo sapiens, 72 or 168 hours
Protocol: Huh-7 cell suspension was adjusted to 5×10^4/ml or 2×10^4/ml with DMEM+2 mM Glutamine+10% FBS medium. 100 μL of cell suspension was added per well to a 96-well cell culture plate, to give a final cell concentration of 5000 cells/well (72 hours) or 2000 cells/well (168 hours). The compound to be tested (compound of formula (B)) was dissolved in DMSO to give 10 mmol of stock solution. 200× final concentration of compound was prepared with stock solution and DMSO, and 3× serial gradient dilutions were prepared, then diluted 20-fold each with medium. Finally, 10 μL of the corresponding 10-fold solution was added per well for each cell, wherein each drug concentration was added in one well. […] After 72 or 168 hours of drug treatment, according to CTG instructions (CellTiter Glo), 100 μL of CTG solution that had been previously thawed and equilibrated to room temperature was added per well, mixed for 2 minutes using a microplate shaker, placed at room temperature for 10 minutes, and then chemiluminescent signal value was measured with EnSpire plate reader. Cell survival was calculated using formula: (Vsample−Vblank)/(Vvehicle control−Vblank)×100%, wherein Vsample is the reading of the drug treatment group, Vvehicle control is the average of the solvent control group, and Vblank is the average of the blank control wells. […]

[5] = 638 patients, cited from earlier work
[6] = patients taking sorafenib, N=2276; cited from earlier work
[7] = NU/NU mice, gavage qd 14 days, compound of formula (B) 5 mg/kg, lenvatinib mesylate 8 mg/kg, palbociclib 50 mg/kg
[8] = compound of formula (B) 5 mg/kg, lenvatinib mesylate 8 mg/kg
[9] = listed as compound of formula (B)
[10] = most common drug-related adverse events

Row | Change Rate in Weight (%) [2] [%] | Compound | Number of Animals (Survived/Total) [1, 7] | growth of tumor (tumor weight) versus vehicle, in words [1] | growth of xenograft tumor (tumor volume) versus vehicle, in words [1] | TV (mm^3) d14 [1, 8] | T/C d14 (%) (relative tumor volume proliferation rate) [1, 8] | TGI d14 (%) (tumor growth inhibition rate) [1, 8] | Tumor Weight [1, 8] [g] | Tumor Weight Inhibition Rate (%) [1, 8] [%] | Number of Animals (Survived/Total) [2] | growth of xenograft tumor (tumor volume) versus vehicle, in words [2] | tumor growth (tumor weight) versus vehicle, in words [2] | TV(mm3) d16 [2] [mm3] | T/C d16 (%) (relative tumor volume proliferation rate) [2] | TGI d16 (%) (tumor growth inhibition rate) [2] | Tumor Weight [2] [g] | Tumor Weight Inhibition Rate (%) [2] [%] | further results
1 | −12.0 | N#Cc1cnc(NC(=O)N2CCCc3cc(CN4CCN5CCC[C@H]5C4=O)c(C=O)nc32)cc1NC1CC1 [Compound of formula (B)] | 7/7 | significantly inhibited the growth of the xenograft tumor | significantly inhibited the growth of the xenograft tumor | 607.8 ± 277.1** mm^3 | 55.8 | 49.1 | 0.7481 ± 0.3692 | 43.8 | 6/6 | can significantly inhibit the growth of the xenograft tumor | can significantly inhibit tumor growth | 608.1 ± 293.4 | 75.1 | 44.5 | 0.59 ± 0.34 | 46.4 | Change Rate in Weight (%) [1, 7]: −4.5%; T/C d16 (%) (relative tumor volume proliferation rate) [2, 9]: 84.5%; TGI d16 (%) (tumor growth inhibition rate) [2, 9]: 30.9%; tumor volume growth compared to model (vehicle) group at corresponding time points, in words ([2]; days as stated (d13-d16 alone; d3-d6, d10-d16 with sorafenib tosylate; d6-d16 with palbociclib)): can significantly inhibit tumor volume growth; Tumor Weight Inhibition Rate (%) [2, 9]: 27.8%; IC50 [3]: < 5 nM; IC50 [4]: < 10 nM
2 | −24.7 | CC(=O)c1c(C)c2cnc(Nc3ccc(N4CCNCC4)cn3)nc2n(C2CCCC2)c1=O [Palbociclib, 6-acetyl-8-cyclopentyl-5-methyl-2-{[5-(piperazin-1-yl)pyridin-2-yl]amino}pyrido[2,3-d]pyrimidin-7 (8H)-one] | 7/7 | did not inhibit the growth of tumor | failed to inhibit the growth of xenograft tumor | 948.8 ± 361.2 mm^3 | 95.8 | 11.0 | 1.3047 ± 0.4823 | 2.1 | 6/6 | failed to inhibit the growth of xenograft tumor | failed to inhibit tumor growth | 711.6 ± 313.8 | 91.3 | 31.4 | 0.89 ± 0.30 | 19.1 | T/C d16 (%) (relative tumor volume proliferation rate) ([2]; listed as palbociclib): 75.1%; TGI d16 (%) (tumor growth inhibition rate) ([2]; listed as palbociclib): 44.5%; Tumor Weight Inhibition Rate (%) ([2]; listed as palbociclib): 46.4%
3 | – | COc1cc2nccc(Oc3ccc(NC(=O)NC4CC4)c(Cl)c3)c2cc1C(N)=O [Lenvatinib Mesylate, 4-[3-chloro-4-(N′-cyclopropylureido)phenoxy]-7-methoxyquinoline-6-carboxamide mesylate] | 7/7 | significantly inhibited the growth of the xenograft tumor | significantly inhibited the growth of the xenograft tumor | 533.1 ± 212.6** mm^3 | – | 57.4 | 0.5600 ± 0.1923 | 58.0 | – | – | – | – | – | – | – | – | –
4 | −17.5 | CNC(=O)c1cc(Oc2ccc(NC(=O)Nc3ccc(Cl)c(C(F)(F)F)c3)cc2)ccn1.Cc1ccc(S(=O)(=O)O)cc1 [Sorafenib Tosylate, 4-{4-[3-(4-chloro-3-trifluoromethyl-phenyl)-acylurea]-phenoxy}-pyridine-2-carboxylic acid methylamide-4-toluenesulfonate] | – | – | – | – | – | – | – | – | – | failed to inhibit the growth of xenograft tumor | failed to inhibit tumor growth | 717.2 ± 222.7 | 84.5 | 30.9 | 0.79 ± 0.23 | 27.8 | T/C d16 (%) (relative tumor volume proliferation rate) ([2]; listed as sorafenib tosylate): 91.3%; TGI d16 (%) (tumor growth inhibition rate) ([2]; listed as sorafenib tosylate): 31.4%; Tumor Weight Inhibition Rate (%) ([2]; listed as sorafenib tosylate): 19.1%
5 | – | CNC(=O)c1cc(Oc2ccc(NC(=O)Nc3ccc(Cl)c(C(F)(F)F)c3)cc2)ccn1 [sorafenib] | – | – | – | – | – | – | – | – | – | – | – | – | – | – | – | – | incidence of CTC (version V2.0) Grade 3 drug-related adverse events [5]: 37%; incidence of CTC (version V2.0) Grade 4 drug-related adverse events [5]: 3%; diarrhea [5, 10]: 37%; hand and foot skin reactions [5, 10]: 35%; malaise [5, 10]: 33%; rash [5, 10]: 38%; incidence of congestive heart failure [6]: 1.9%
